{"source": "patent US12497597B2", "about": "“Methods of generating and expanding hematopoietic stem cells” (CHILDREN'S HOSPITAL MEDICAL CENTER, priority 2019, dated 2025)", "key": {"Notch activity": {"tested_on": "Notch activity", "test": "Notch inhibition in organoid cultures with the γ-secretase inhibitor DAPT", "type": "cell-based, human"}, "liver organoid cultures": {"tested_on": "liver organoid cultures", "test": "Notch dependency test: DLL4 added to Matrigel drops of liver organoid culture with hematopoietic cytokines", "type": "cell-based, human", "procedure": "Day 7 spheroids were collected by manual pipetting and pelleted by centrifugation. Media was aspirated and cells were embedded in 100% Matrigel by gentle pipetting to homogenize the cell pellet. Optionally, a Notch activator or ligand is added to the Matrigel (e.g. 10 μg/mL, of […]). Alternatively, optionally, UCB cells are added to the Matrigel for co-culture with organoids (e.g. 1,000 UCB cells per 75 μL of Matrigel). 250 μL Matrigel (Corning) was used per well of a 24-well plate of definitive endoderm culture. 75 μL Matrigel drops were made, 1 drop per each well of a fresh 24-well plate (VWR). The plates were placed at 37° C. in an atmosphere of 5% CO2/95% air for 5-15 minutes. After the Matrigel was solidified, Advanced DMEM/F12 with 1×B27, 1×N2, 2 mM L-glutamine, 15 mM HEPES, and 1× penicillin/streptomycin was added to the wells. This media was supplemented with 20 ng/mL BMP4 and 10 ng/mL, FGF2 for 4 days, and then the BMP4 and FGF2 were removed.\nOrganoids were isolated from Matrigel drops and washed with 1×PBS. HLOs were dissociated to single cells by treatment with Trypsin-EDTA (0.05%, with phenol red, Gibco) for 10 minutes. Cells were washed in DMEM/F12 with 10% FBS and suspended in PBS with 2% FBS. After filtration (e.g. through a 40-50 μm nylon filter), the single cells were subjected to flow cytometry with the following antibodies: anti-CD45-APC (Miltenyl, 130-098-143), anti-CD34-APC/Cy7 (BioLegend, 343513), anti-CD11b-PE/Cy7 (BioLegend, 301322), anti-CD19-BV421 (BioLegend, 302233), anti-CD27-AF700 (BioLegend, 356415), anti-CD43-FITC (BioLegend, 315204). For mouse engraftment experiments, anti-mouse CD45-BV421 (BioLegend, 103133) was used.\nRNA was isolated using the RNeasy mini kit (Qiagen). Reverse transcription was carried out using the High-Capacity cDNA. Reverse Transcription Kit (Thermo Fisher) according to manufacturer's protocol. qPCR was carried out in duplicate using TagMan Gene Expression Master Mix (Applied Biosystems) and probes from the Universal Probe Library (Roche) on a QuantStudio 3 Real-Time PCR System (Thermo Fisher). […]"}}, "data": [{"compound": "C[C@H](NC(=O)Cc1cc(F)cc(F)c1)C(=O)N[C@H](C(=O)OC(C)(C)C)c1ccccc1", "note": "[DAPT]", "values": [{"measurement": "HES1 expression", "setting": "Notch activity; different concentrations of DAPT, 4 days of treatment from day 6, FIG. 10C", "value": "decrease"}, {"measurement": "albumin expression", "setting": "Notch activity; different concentrations of DAPT, 4 days of treatment from day 6, FIG. 10D", "value": "maintaining albumin expression"}, {"measurement": "visible erythrocytes", "setting": "Notch activity; light microscopy, 100 μM DAPT vs DMSO control, 12 days of treatment, FIG. 10A", "value": "decrease in visible erythrocytes"}]}, {"compound": "DLL4: Notch ligand added to the Matrigel drops during organoid seeding", "values": [{"measurement": "production of CD45+ hematopoietic cells", "setting": "liver organoid cultures; DLL4 1-10 μg/mL in Matrigel drops at organoid seeding, medium with IL-3, IL-34, GM-CSF 100 ng/mL each, FIG. 8", "value": "increased the efficiency of cytokines in producing CD45^+ hematopoietic cells"}, {"measurement": "IL-6 expression", "setting": "liver organoid cultures; qPCR, organoids at day 18, DLL4 plus cytokines IL-3, IL-34, GM-CSF, FIG. 9A", "value": "significant increase"}, {"measurement": "albumin expression", "setting": "liver organoid cultures; qPCR, organoids at day 18, DLL4 plus cytokines IL-3, IL-34, GM-CSF, FIG. 9B", "value": "modest decrease"}]}]}
